According to US5646316A, “Bile acid inhibitors of metalloproteinase enzymes” (OsteoArthritis Sciences, Inc., priority 1995, dated 1997):
Where two headings read alike, the source gives them in different places.

Columns and labels:
[1] = system: bovine cartilage explants; test: Bovine Cartilage Explant Assay (35S-GAG release, rhIL-1α stimulated; tissue culture); type: cell-based; conditions: Bos taurus, read-out: percent inhibition of extracellular matrix damage, Tissue Culture
Text: A tissue culture assay was used to measure the ability of the compounds of the present invention to slow the degradation of the extracellular matrix by metalloproteinases. This assay measured the amount of ^35 S-glycosaminoglycan (^35 S-GAG) released from labeled bovine cartilage explants.
Knee joints from a 1 to 3 week old calf were obtained immediately after sacrifice from the Abattoir and then transported on ice. The intact joints were washed well with tap water and soaked in 50% (v/v) Povidine iodine solution, obtained from Burre National, Inc., Baltimore, Md. All subsequent steps were performed in a laminar flow tissue culture hood using standard sterile technique. The joint was immobilized in a shank holder and the joint capsule was cut open to expose the articular cartilage. Cartilage explant plugs, approximately 15 mg wet weight, were removed from the flat articulating surfaces in the lower-most region of the knee joint using a sterile steel cork-borer and collected in a 250 mL roller bottle containing about 100 mL fresh Delbecco's minimum essential medium (DMEM), obtained from Gibco BRC, Life Technologies, Gaithersburg, Md., containing 4.5 g/1 (D)-glucose and (L)-glutamine, without sodium pyruvate. The fresh media also contained enough Hepes buffer and sodium bicarbonate such that the pH was about 7.4. The media was then further supplemented just before use with 100 units Penicillin, 100 μg Streptomycin, and 50 μg (L)-ascorbic acid per mL of medium.
Once collected, the explant plugs were washed four times with 50 mL fresh DMEM. The plugs were then placed in the incubator for a minimum of 1 hour to equilibrate, before proceeding to make disks from the articulating surface of each plug. A 1 mm thick disk was sliced from individual plugs from the end that was the articulating surface of the joint. The plug was held steady in the sterile template (4 mm diameter×1.5 mm deep) using sterile forceps. A scalpel blade was used to carefully slice off the disk. Only the superficial articulating surface responded well in culture.
Individual disks obtained were transferred to a tissue culture flask containing about 100 mL fresh media. The flask containing the disks was placed in an incubator at 37° C. (with 5% CO2, 95% air) and allowed to equilibrate overnight and at least one additional day before labeling. When ready to label, the old media was replaced with 50 mL fresh media containing about 500 μCi ^35 S-Sodium Sulfate. The plugs were labeled in bulk for about 48 hours. The next morning, the "hot" media was removed and replaced with fresh "cold" media. The disks were again allowed to equilibrate overnight before being used for actual experiments.
The media in which the disks were stored was changed immediately prior to performing the assay. The disks were then returned to the incubator until the test media and the two control media had been prepared. The test media consisted of a bile acid or bile acid derivative (50 μM) being tested for its ability to inhibit extracellular matrix degradation and concomitant recombinant human Interleukin rhIL-1α (5 ng/mL) in fresh DMEM solution. The control media were identical to the test media, except that the first control media lacked rhIL-1α and the second control media lacked an inhibitor, i.e. a bile acid or bile acid derivative. 250 μL of each of the test and control media were transferred to separate 96-well TC plates. Flamed forceps were used to transfer a disk from the incubator to each 96-well TC plates that had been filled with either the test media or one of the two control media.
The TC plates were then placed in the incubator and cultured for 3-4 days (initial incubation with rhIL-1α alpha takes at least 3 days to stimulate endogenous metalloproteinases). A 50 μL aliquot of media from each TC plate was saved and counted. The rest of the media was removed with a suction device.
The cartilage disks from each TC plate were also saved for counting. […]

chondrocytes = test: Chondrocyte Cell Culture Matrix Breakdown Assay (35S release, rhIL-1α stimulated); type: cell-based, calf; conditions: Bos taurus, Chondrocyte; for inhibition at 50 µM: read-out: percent inhibition, Cell Culture
Procedure: A cell culture assay was used to measure the ability of compounds to slow the degradation of the extracellular matrix by a metalloproteinase. This assay measured the amount ^35 S released from chondrocytes grown in a media with ^35 S labeled sodium sulfate. The cell culture assay was carried out as follows:
Two or three 1 to 3 week old calf joints were obtained from an abattoir. The proximal end of the shank was at about 4-5" long to facilitate immobilization in the holder. The joint was kept cool and transported on ice. The exterior of the intact joints was washed well with a suitable anti-microbial soap, rinsed clean with warm water, rinsed in betadine and then finally rinsed with 70% ethanol. Up to this point all steps were done in a manner to ensure that the joint was kept as clean as possible. All subsequent steps were performed in a sterile field (i.e., in a Edgeguard laminar flow tissue culture hood). The joint was immobilized and the synovial fluid was aspirated with a needle and syringe. The joint was then cut open to expose the articular cartilage using a #21 scalpel. Using locking hemostats, forceps and a #15 scalpel, the cartilage was excised in full thickness pieces. Care was taken not to cut too deep because bleeding would have occurred if the subchondral bone, was penetrated. The cartilage pieces were placed into a 50 mL centrifuge tube containing 25 mL of Delbecco's phosphate buffered saline (D-PBS) supplemented with 1% antibiotic solution (penicillin, streptomycin and fungizone; GIBCO/BRL). The slices from each joint were then placed into separate 50 mL centrifuge tubes. The D-PBS was decanted and replaced with 25 mL of fresh D-PBS supplemented with antibiotics and subsequently agitated gently.
The cartilage pieces were transferred to a fresh 50 mL centrifuge tube and rinsed once more with 25 mL of D-PBS minus antibiotics. An enzymatic digestion solution containing 1 mg/mL of hyaluronidase in serum-free 1:1 DMEM/Ham's F-12 (DMEM/F12) was prepared. This solution was filter sterilized with […] Milex--GV filter and kept on ice until ready to use. The cartilage pieces were digested with approximately 5 mL of hyaluronidase solution per joint for 2×15 minutes at 37° C. in the 50 mL centrifuge tube with gentle agitation at the 15 minute mark. This procedure removed residual hyaluronic acid from the surface of the chips. The enzymatic digestion solution was then aspirated and the cartilage pieces were rinsed with 25 mL of D-PBS.
A second enzymatic digestion solution containing 2.5 mg trypsin and 2 mg collagenase P per mL serum-free DMEM/F12 was prepared. This solution was also filter sterilized with a […] Millex--GV filter and kept on ice until ready to use. The cartilage pieces were digested with approximately 5 mL of trypsin: collagenase solution per joint for 2×15 minutes at 37° C. in the 50 mL centrifuge tube with gentle agitation at the 15 minute mark. This procedure removed the synovial fibroblasts and any adherent connective tissue from the surface of the chips. The enzymatic digestion solution was then carefully removed and saved and the cartilage pieces were rinsed with 25 mL of D-PBS.
A third enzymatic solution containing 2 mgs of collagenase P (BMB) per mL serum-free DMEM/F12 was prepared. This solution was filter sterilized with a […] Millex--GV filter and kept on ice until ready to use. The pre-digested cartilage pieces were finally digested with approximately 20 mL of enzymatic digestion solution per joint for 5-6 hours at 37° C. in a Bellco stirring digestion flask, at which point the cartilage was fully digested away.
The enzymes in the synovial fibroblast and chondrocyte digest were neutralized by addition of an equal volume of DMEM/F12 supplemented with 5% fetal bovine serum. Fibroblasts were plated in DMEM at a cellular density of 6.6×10^3 cells per cm^2. […]

[2] = at 50 μM, rhIL-1α 5 ng/mL, 3-4 days
[3] = at 50 μM, rhIL-1α 1 ng/ml, 22-24 hours

| Compound | inhibition at 50 µM [1, 2] [%] | inhibition at 50 µM (chondrocytes; [3]) [%] | inhibition at 50 µM [1] [%] | inhibition at 50 µM (chondrocytes) [%] | IC50 (chondrocytes; rhIL-1α 1 ng/ml, 22-24 hours) [µM] |
| --- | --- | --- | --- | --- | --- |
| C[C@H](CCC(=O)O)[C@H]1CC[C@H]2[C@@H]3CC[C@@H]4C[C@H](O)CC[C@]4(C)[C@H]3CC[C@]12C [Compound 1, Lithocholic acid, reference compound] | 68 | 95 | – | – | – |
| C[C@H](CCC(=O)NCCC[N+](C)(C)CCCS(=O)(=O)[O-])[C@H]1CC[C@H]2[C@@H]3[C@H](O)C[C@@H]4C[C@H](O)CC[C@]4(C)[C@H]3C[C@H](O)[C@]12C [Compound 8, 3-[(3-cholamidopropyl)dimethylammonio)-1-propanesulfonate, reference compound] | – | – | -120 | 2 | – |
| CC(C)C[C@H](NC(=O)CC[C@@H](C)[C@H]1CC[C@H]2[C@@H]3CC[C@@H]4C[C@H](O)CC[C@]4(C)[C@H]3CC[C@]12C)C(=O)NO [Compound 9, Lithocholyl-(L)-Leucine Hydroxamic Acid] | 84 | 43 | – | – | – |
| CC(C)C[C@H](NC(=O)CC[C@@H](C)[C@H]1CC[C@H]2[C@@H]3[C@H](O)C[C@@H]4C[C@H](O)CC[C@]4(C)[C@H]3CC[C@]12C)C(=O)NO [Compound 10, Chenodeoxycholyl-(L)-Leucine Hydroxamic Acid] | 85 | – | – | – | 80 |
| C[C@H](CCC(=O)NOCc1ccccc1)[C@H]1CC[C@H]2[C@@H]3[C@H](O)C[C@@H]4C[C@H](O)CC[C@]4(C)[C@H]3CC[C@]12C [Compound 12, Chenodeoxycholyl-O-Benzylhyroxamate] | 6 | 64 | – | – | – |
| C[C@H](CCC(=O)NO)[C@H]1CC[C@H]2[C@@H]3CC[C@@H]4C[C@H](O)CC[C@]4(C)[C@H]3CC[C@]12C [Compound 13, Lithocholylhydroxamic Acid] | 44 | – | – | – | 20 |
| C[C@H](CCC(=O)N[C@@H](Cc1ccccc1)C(=O)NO)[C@H]1CC[C@H]2[C@@H]3CC[C@@H]4C[C@H](O)CC[C@]4(C)[C@H]3CC[C@]12C [Compound 15, Lithocholyl-(L)-Phenylalanine Hydroxamic Acid] | 54 | 38 | – | – | – |
| C[C@H](CCC(=O)N[C@@H](Cc1ccccc1)C(=O)NO)[C@H]1CC[C@H]2[C@@H]3[C@H](O)C[C@@H]4C[C@H](O)CC[C@]4(C)[C@H]3CC[C@]12C [Compound 16, Chenodeoxycholyl-(L)-Phenylalanine Hydroxamic Acid] | 94 | 85 | – | – | – |
| CCOC(=O)[C@H](CS)NC(=O)[C@H](Cc1ccccc1)NC(=O)CC[C@@H](C)[C@H]1CC[C@H]2[C@@H]3CC[C@@H]4C[C@H](O)CC[C@]4(C)[C@H]3CC[C@]12C [Compound 19, Lithocholyl-(L)-Phenylalanyl-(L)-Cysteine Ethyl Ester] | 32 | 4 | – | – | – |
| C[C@H](CCC(=O)N[C@@H](Cc1ccccc1)C(=O)NC1CCSC1=O)[C@H]1CC[C@H]2[C@@H]3CC[C@@H]4C[C@H](O)CC[C@]4(C)[C@H]3CC[C@]12C (some centres unmarked) [Compound 20, Lithocholyl-Phenylalanylhomocysteine Thiolactone] | -13 | 16 | – | – | – |
